According to ChEMBL document CHEMBL1201862, “PubChem BioAssay data set” (2004):
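Tested at 5 concentrations; 48 h exposure; 96-well plates; endpoints linearly interpolated, else capped at highest concentration. Abbreviation: GI50, concentration required for 50% inhibition of growth.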 Activity calls are given as the source filed them. No stated cut-off is given here; in the data, active = GI50 up to about 1.1 µM and inactive = higher.

Experiments:
Test in all cases: NCI-60 cell line screen, 48 h
Malme-3M = tested on: Malme-3M
HL-60 = tested on: HL-60
HCC 2998 = tested on: HCC 2998
DU-145 = tested on: DU-145
MDA-MB-435 = tested on: MDA-MB-435
MDA-N = tested on: MDA-N
A549 = tested on: A549
HOP-62 = tested on: HOP-62
TK-10 = tested on: TK-10
KM12 = tested on: KM12
T47D = tested on: T47D
EKVX = tested on: EKVX
HOP-92 = tested on: HOP-92
COLO 205 = tested on: COLO 205
ACHN = tested on: ACHN
SW-620 = tested on: SW-620
U-251 = tested on: U-251
SNB-19 = tested on: SNB-19
OVCAR-5 = tested on: OVCAR-5
SNB-75 = tested on: SNB-75

Measured: GI50

COc1ccc2nc3ccc(OC)cc3c(SCCCl)c2c1
inactive: Malme-3M 9.57 µM | HL-60 3.28 µM | HCC 2998 > 45.8 µM | DU-145 21 µM | MDA-MB-435 9.95 µM | MDA-N > 50.6 µM | A549 39.2 µM | HOP-62 18.1 µM | TK-10 > 81.5 µM | KM12 17.5 µM | T47D 15.2 µM | EKVX > 49.9 µM | HOP-92 21.6 µM | COLO 205 > 39.1 µM | ACHN 13.9 µM | SW-620 12.6 µM | U-251 18 µM | SNB-19 32.4 µM | OVCAR-5 24.8 µM | SNB-75 13.7 µM
